Target: T1, Arap3-PH1 (Homo sapiens, UniProt Q8WWN8)
T1 construct: first PH domain, residues 284-385, C-terminal 6xHis tag (pET22b), expressed in E. coli BL21(DE3)
T1 sequence (Q8WWN8 284-385): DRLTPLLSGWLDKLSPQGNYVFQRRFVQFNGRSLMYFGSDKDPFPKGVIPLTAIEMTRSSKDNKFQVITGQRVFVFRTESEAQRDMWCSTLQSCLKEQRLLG
Assay: SPR (Biacore T200, CM5, protein immobilised), one-site fit
Type: binding

Row | Kd | SMILES
1 | ~11.4 µM | CCCC(=O)OC[C@H](COP(=O)(O)O[C@H]1[C@H](O)[C@@H](OP(=O)(O)O)[C@H](OP(=O)(O)O)[C@@H](OP(=O)(O)O)[C@H]1O)OC(=O)CCC [diC4-PI(3,4,5)P3]
2 | ~61.7 µM | CCCC(=O)OC[C@H](COP(=O)(O)O[C@@H]1[C@H](O)[C@H](O)[C@@H](OP(=O)(O)O)[C@H](OP(=O)(O)O)[C@H]1O)OC(=O)CCC [diC4-PI(4,5)P2]

From publication PMC9865853, “Structural Insights Uncover the Specific Phosphoinositide Recognition by the PH1 Domain of Arap3” (International Journal of Molecular Sciences, 2023)
